Reference: US9957264B2 (Merck Sharp & Dohme Corp., priority 2013, dated 2018)

What was measured:
[1] = target: JAK1 (recombinant purified GST-tagged catalytic domain) (Homo sapiens (Human), UniProt P23458); test: Jak Biochemical HTRF Assay (JAK1); conditions: [ATP] 31.8 μM
Summary of the method: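 Kinase reaction with biotinylated peptide substrate was started by ATP addition and run 120 min at room temperature, then quenched with EDTA stop buffer containing streptavidin-Dylight 650 and Eu-pY20 antibody. HTRF read 60 min later (665/615 nm ratio); percent inhibition vs log concentration fit to 4-parameter curve for IC50.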

[2] = target: JAK2 (recombinant purified GST-tagged catalytic domain) (Homo sapiens (Human), UniProt O60674); test: Jak Biochemical HTRF Assay (JAK2); conditions: [ATP] 8.5 μM
Chain of JAK2 (recombinant purified GST-tagged catalytic domain) (O60674 849-1124): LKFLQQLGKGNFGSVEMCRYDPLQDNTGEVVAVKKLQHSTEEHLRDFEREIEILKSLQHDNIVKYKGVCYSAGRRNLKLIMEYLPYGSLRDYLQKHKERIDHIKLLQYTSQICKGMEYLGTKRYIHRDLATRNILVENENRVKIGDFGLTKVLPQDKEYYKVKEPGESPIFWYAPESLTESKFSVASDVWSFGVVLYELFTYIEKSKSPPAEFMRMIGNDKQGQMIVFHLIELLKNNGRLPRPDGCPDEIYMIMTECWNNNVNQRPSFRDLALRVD

Chain of JAK1 (recombinant purified GST-tagged catalytic domain) (P23458 875-1153): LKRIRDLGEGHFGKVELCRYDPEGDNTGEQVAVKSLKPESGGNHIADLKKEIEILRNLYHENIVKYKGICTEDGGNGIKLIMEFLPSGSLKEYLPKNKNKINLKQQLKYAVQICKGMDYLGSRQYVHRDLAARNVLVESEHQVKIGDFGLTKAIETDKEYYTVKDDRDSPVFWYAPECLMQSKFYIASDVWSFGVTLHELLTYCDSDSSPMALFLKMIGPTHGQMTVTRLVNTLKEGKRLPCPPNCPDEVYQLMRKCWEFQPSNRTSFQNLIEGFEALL

SMILES | IC50 [1] [nM] | IC50 [2] [nM]
CC(C)(C)OC(=O)[C@@H]1CC[C@](CC#N)(n2nc(Nc3ccc(S(C)(=O)=O)cc3)c3c(=O)[nH]ccc32)CO1 (racemic) [Example 5-35, (2R,5S and 2S,5R)-tert-butyl 5-(cyanomethyl)-5-(3-((4-(methylsulfonyl)phenyl)amino)-4-oxo-4,5-dihydro-1H-pyrazolo [4,3-c]pyridin-1-yl) tetrahydro-2H-pyran-2-carboxylate] | 3.43 | 29.3
CC(C)NC(c1ccc(Nc2nn([C@]3(CC#N)CCCOC3)c3cc[nH]c(=O)c23)cc1)C(F)(F)F (single isomer, unassigned) [Example 5-205, [(3S)-3-{4-oxo-3-[(4-{(1R or 1S)-2,2,2-trifluoro-1-[(1-methylethyl)amino]ethyl}phenyl)amino]-4,5-dihydro-1H-pyrazolo[4,3-c]pyridin-1-yl}tetrahydro-2H-pyran-3-yl]acetonitrile] | 0.17 | 0.2
Cc1cc(Nc2nn([C@]3(CC#N)CC[C@@H](C(=O)OC(C)(C)C)OC3)c3cc[nH]c(=O)c23)ccc1C(=O)N1CCSC1C (single isomer, unassigned) [Example 5-157, (2S,5S)-tert-butyl 5-(cyanomethyl)-5-(3-((3-methyl-4-((S or R)-2-methylthiazolidine-3-carbonyl)phenyl)amino)-4-oxo-4,5-dihydro-1H-pyrazolo[4,3-c]pyridin-1-yl)tetrahydro-2H-pyran-2-carboxylate] | 0.19 | 0.27
CO[C@@H]1CCN(C(=O)c2ccc(Nc3nn([C@]4(CC#N)CCCOC4)c4cc[nH]c(=O)c34)cc2C)C1 [Example 5-117, 2-((S)-3-(3-((4-((R)-3-methoxypyrrolidine-1-carbonyl)-3-methylphenyl)amino)-4-oxo-4,5-dihydro-1H-pyrazolo[4,3-c]pyridin-1-yl)tetrahydro-2H-pyran-3-yl)acetonitrile] | 0.45 | 1.36
N#CCC1(n2nc(Nc3ccc(C#N)cc3)c3c(=O)[nH]ccc32)CCCC1 [Example 5-124, 4-((1-(1-(cyanomethyl)cyclopentyl)-4-oxo-4,5-dihydro-1H-pyrazolo[4,3-c]pyridin-3-yl)amino) benzonitrile] | 0.58 | 3.69
N#CCC1(n2nc(Nc3ccc(S(=O)(=O)N4CCC4)cc3)c3c(=O)[nH]ccc32)CCCC1 [Example 5-132, 2-(1-(3-((4-(azetidin-1-ylsulfonyl)phenyl)amino)-4-oxo-4,5-dihydro-1H-pyrazolo[4,3-c]pyridin-1-yl)cyclopentyl)acetonitrile] | 0.39 | 0.68
CC(C)(C)NC(c1ccc(Nc2nn([C@]3(CC#N)CC[C@@H](C(=O)OC(C)(C)C)OC3)c3cc[nH]c(=O)c23)cc1)C(F)(F)F (single isomer, unassigned) [Example 5-195, (2S,5S)-tert-butyl 5-(3-((4-((R or S)-1-(tert-butylamino)-2,2,2-trifluoroethyl)phenyl)amino)-4-oxo-4,5-dihydro-1H-pyrazolo [4,3-c]pyridin-1-yl)-5-(cyanomethyl)tetrahydro-2H-pyran-2-carboxylate] | 0.56 | 0.68
COC(=O)N1CCC(CC#N)(n2nc(Nc3ccc4c(c3)CN(CC3CCCC3)S4(=O)=O)c3c(=O)[nH]ccc32)CC1 [Example 5-75, methyl 4-(cyanomethyl)-4-(3-{[2-(cyclopentylmethyl)-1,1-dioxo-2,3-dihydro-1,2-benzothiazol-5-yl]amino}-4-oxo-1H,4H,5H-pyrazolo [4,3-c]pyridin-1-yl) piperidine-1-carboxylate] | 0.12 | 0.37
CC(C)(C)OC(=O)N1CCC(CC#N)(n2nc(Nc3ccc(S(=O)(=O)C(F)(F)F)cc3)c3c(=O)[nH]ccc32)CC1 [Example 5-76, tert-butyl 4-(cyanomethyl)-4-[4-oxo-3-({4-[(trifluoromethyl)sulfonyl]phenyl}amino)-4,5-dihydro-1H-pyrazolo [4,3-c]pyridin-1-yl] piperidine-1-carboxylate] | 0.9 | 7.89
CC(C)N1Cc2cc(Nc3nn(C4(CC#N)CCCC4)c4cc[nH]c(=O)c34)ccc2C1=O [Example 5-129, 2-(1-(3-((2-isopropyl-1-oxoisoindolin-5-yl)amino)-4-oxo-4,5-dihydro-1H-pyrazolo[4,3-c]pyridin-1-yl)cyclopentyl)acetonitrile] | 2.07 | 3.54

Second part, the compound after the results:

IC50 [1] [nM] | IC50 [2] [nM] | SMILES
0.36 | 3 | N#CC[C@@]1(n2nc(Nc3ccc(C4(C(F)(F)F)CC4)cc3)c3c(=O)[nH]ccc32)CCCOC1 [Example 5-224, (S)-2-(3-(4-oxo-3-((4-(1-(trifluoromethyl)cyclopropyl)phenyl)amino)-4,5-dihydro-1H-pyrazolo[4,3-c]pyridin-1-yl)tetrahydro-2H-pyran-3-yl)acetonitrile]
0.1 | 2.07 | CN(C(=O)[C@@H]1CC[C@@](CC#N)(n2nc(Nc3ccc4c(c3)CN(C(C)(C)C)S4(=O)=O)c3c(=O)[nH]ccc32)CO1)C(C)(C)C [Example 19-2, (2S,5S)-N-tert-butyl-5-{3-[(2-tert-butyl-1,1-dioxido-2,3-dihydro-1,2-benzisothiazol-5-yl)amino]-4-oxo-4,5-dihydro-1H-pyrazolo[4,3-c]pyridin-1-yl}-5-(cyanomethyl)-N-methyltetrahydro-2H-pyran-2-carboxamide]
0.43 | 0.62 | Cc1cc(Nc2nn([C@]3(CC#N)CCCOC3)c3cc[nH]c(=O)c23)ccc1C(=O)N1CCCC[C@@H]1C [Example 20-2, 2-((S)-3-(3-((3-methyl-4-((S)-2-methylpiperidine-1-carbonyl)phenyl)amino)-4-oxo-4,5-dihydro-1H-pyrazolo[4,3-c]pyridin-1-yl)tetrahydro-2H-pyran-3-yl)acetonitrile]
0.34 | 1.13 | CC(C)(O)[C@@H]1CC[C@@](CC#N)(n2nc(Nc3ccc(Cl)cc3)c3c(=O)[nH]ccc32)CO1 [Example 24, 2-((3S,6S)-3-(3-((4-chlorophenyl)amino)-4-oxo-4,5-dihydro-1H-pyrazolo[4,3-c]pyridin-1-yl)-6-(2-hydroxypropan-2-yl)tetrahydro-2H-pyran-3-yl)acetonitrile]
0.14 | 1.16 | CC(C)(C)OC(=O)[C@@H]1CC[C@@](CC#N)(n2nc(Nc3ccc4nc(C#N)ccc4c3)c3c(=O)[nH]ccc32)CO1 [Example 5-216, (2S,5S)-tert-butyl 5-(cyanomethyl)-5-(3-((2-cyanoquinolin-6-yl)amino)-4-oxo-4,5-dihydro-1H-pyrazolo[4,3-c]pyridin-1-yl)tetrahydro-2H-pyran-2-carboxylate]
0.16 | 0.73 | Cc1cc(C)n(-c2ccc(Nc3nn([C@]4(CC#N)CC[C@@H](C(=O)OC(C)(C)C)OC4)c4cc[nH]c(=O)c34)cc2)n1 [Example 5-218, (2S,5S)-tert-butyl 5-(cyanomethyl)-5-(3-((4-(3,5-dimethyl-1H-pyrazol-1-yl)phenyl)amino)-4-oxo-4,5-dihydro-1H-pyrazolo[4,3-c]pyridin-1-yl)tetrahydro-2H-pyran-2-carboxylate]
0.36 | 0.26 | CC(C)NC(C)(C)c1ccc(Nc2nn([C@]3(CC#N)CC[C@@H](C(=O)OC(C)(C)C)OC3)c3cc[nH]c(=O)c23)cc1 [Example 5-274, (2S,5S)-tert-butyl 5-(cyanomethyl)-5-(3-((4-(2-(isopropylamino)propan-2-yl)phenyl)amino)-4-oxo-4,5-dihydro-1H-pyrazolo[4,3-c]pyridin-1-yl)tetrahydro-2H-pyran-2-carboxylate]
0.14 | 3.32 | CC(C)(C)N1Cc2cc(Nc3nn([C@@]4(CC#N)CCOC[C@H]4F)c4cc[nH]c(=O)c34)ccc2S1(=O)=O (single isomer, unassigned) [Example 5-255, 2-((3S,4S or 3R,4R)-4-(3-((2-(tert-butyl)-1,1-dioxido-2,3-dihydrobenzo[d]isothiazol-5-yl)amino)-4-oxo-4,5-dihydro-1H-pyrazolo[4,3-c]pyridin-1-yl)-3-fluorotetrahydro-2H-pyran-4-yl)acetonitrile]
0.38 | 1.03 | CO[C@@H](c1ccc(Nc2nn([C@]3(CC#N)CC[C@@H](C(=O)OC(C)(C)C)OC3)c3cc[nH]c(=O)c23)cc1)C(F)(F)F (single isomer, unassigned) [Example 21-8, (2S,5S)-tert-butyl 5-(cyanomethyl)-5-(4-oxo-3-((4-((S or R)-2,2,2-trifluoro-1-methoxyethyl)phenyl)amino)-4,5-dihydro-1H-pyrazolo[4,3-c]pyridin-1-yl)tetrahydro-2H-pyran-2-carboxylate]
0.11 | 2.94 | Cc1ccc2cc(Nc3nn([C@]4(CC#N)CCCOC4)c4cc[nH]c(=O)c34)ccc2n1 [Example 5-226, (S)-2-(3-(3-((2-methylquinolin-6-yl)amino)-4-oxo-4,5-dihydro-1H-pyrazolo [4,3-c]pyridin-1-yl)tetrahydro-2H-pyran-3-yl)acetonitrile]
0.25 | 0.45 | Cc1cc(Nc2nn([C@]3(CC#N)CC[C@@H](C(=O)OC(C)(C)C)OC3)c3cc[nH]c(=O)c23)ccc1C(=O)N1CC(C)OC(C)C1 (single isomer, unassigned) [Example 20-12, (2S,5S)-tert-butyl 5-(cyanomethyl)-5-(3-((4-((2S,6S or 2R,6R)-2,6-dimethylmorpholine-4-carbonyl)-3-methylphenyl)amino)-4-oxo-4,5-dihydro-1H-pyrazolo[4,3-c]pyridin-1-yl)tetrahydro-2H-pyran-2-carboxylate]
0.16 | 0.37 | CS(=O)(=O)c1ccc(Nc2nn(C3(CC#N)CCN(c4cc(C(F)(F)F)ccn4)CC3)c3cc[nH]c(=O)c23)cc1 [Example 15-1, 2-(4-(3-((4-(methylsulfonyl)phenyl)amino)-4-oxo-4,5-dihydro-1H-pyrazolo[4,3-c]pyridin-1-yl)-1-(4-(trifluoromethyl)pyridin-2-yl)piperidin-4-yl)acetonitrile]
